In test [1] the target is T1, purified recombinant urease from H. pylori (Helicobacter pylori, UniProt B5Z674).
T1 construct: plasmid pGEM::ureOP, which encodes the entire urease gene cluster, was used to produce recombinant H. pylori urease; made in house; host or cells: E. coli Rosetta2 (DE3) + pGEM::ureOP
In words: Inhibition of purified recombinant H. pylori urease (phenol-hypochlorite, Lineweaver-Burk). The test is classed as biochemical. Particulars: 50 mM phosphate buffer pH 7.5, 37°C, 0.1–2.5 mM urea, competitive reversible inhibition. The procedure: The kinetic parameters of urease were determined by measuring the initial rates of the reactions in 50 mM phosphate buffer (pH 7.5) at 37°C. Ammonia was routinely quantified by the phenol hypochlorite method as reported previously.
Inhibition studies were conducted by initiating the enzymatic reaction with the addition of the enzyme into assay mixtures (200 μL total volume) containing increasing concentrations of inhibitors and 0.1–2.5 mM urea. After 15 min of incubation at 37°C, the reaction was stopped by adding phenol-hypochlorite reagents and the absorbance of the formed indophenol blue complexes was measured at 650 nm. The Ki values were determined from Lineweaver-Burk plots after testing at least five inhibitor concentrations in a range that depended on their inhibitory strength. The concentration of inhibitor that caused the loss of 50% of the enzyme’s activity (IC50) was determined from the measurements that were performed at a urea concentration of 0.6 mM and calculated using the linear regression of the urease activity versus the logarithm of the inhibitor concentrations.
The values of Ki and IC50 for all analyzed compounds were calculated using the appropriate equations in GraphPad Prism 5. Errors were reported with two significant digits, and each measured parameter was given with the same number of decimal places as its error [32].

Test [2] addresses T2, urease in intact H. pylori J99 (Helicobacter pylori, UniProt P69997).
T2 construct: In the intact H. pylori J99 cells, the urease susceptibility profile was similar to that of E. coli (pGEM::ureOP); endogenous in cells
Put plainly: Urease inhibition in whole cells of H. pylori J99. The test is classed as cell-based.

In test [3] the target is T3, urease in intact E. coli (pGEM::ureOP) cells (Helicobacter pylori, UniProt B5Z674).
T3 construct: plasmid pGEM::ureOP, which encodes the entire urease gene cluster, was used to produce recombinant H. pylori urease; expressed in transfected cells; host or cells: E. coli Rosetta2 (DE3) transformed with pGEM::ureOP
T3 sequence (B5Z674 whole entry, looked up): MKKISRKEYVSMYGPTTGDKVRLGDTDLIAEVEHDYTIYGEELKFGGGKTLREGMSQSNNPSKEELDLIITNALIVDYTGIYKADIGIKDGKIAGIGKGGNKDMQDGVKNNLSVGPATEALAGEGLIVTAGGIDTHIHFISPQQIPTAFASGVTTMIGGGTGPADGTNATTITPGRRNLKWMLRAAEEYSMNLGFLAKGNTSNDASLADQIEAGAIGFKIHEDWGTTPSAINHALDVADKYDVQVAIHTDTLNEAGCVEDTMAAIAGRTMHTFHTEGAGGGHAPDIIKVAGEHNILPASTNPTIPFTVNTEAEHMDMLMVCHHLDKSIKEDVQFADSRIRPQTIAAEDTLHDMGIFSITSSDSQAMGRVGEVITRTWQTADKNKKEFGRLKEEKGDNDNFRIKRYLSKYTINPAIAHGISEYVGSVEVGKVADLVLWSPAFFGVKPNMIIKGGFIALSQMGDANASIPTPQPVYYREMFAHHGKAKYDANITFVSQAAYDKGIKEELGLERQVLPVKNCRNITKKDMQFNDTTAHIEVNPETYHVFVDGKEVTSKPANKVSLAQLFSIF
In words: Urease inhibition in whole cells of E. coli + pGEM::ureOP. The test is classed as cell-based. Particulars: IC50 exceeding 2 mM considered not active. The procedure:
The expression strain E. coli + pGEM::ureOP was cultured in 150 mL of LB broth (Biocorp, Poland) with 100 μg/mL ampicillin (Polfa, Tarchomin, Poland) at 37°C and induced with IPTG (0.75 mM) and Ni^2+ (0.75 mM) during the exponential growth phase, which was determined by the OD600 measurements (OD600 = 0.6). Further expression was conducted for 24 h at 22°C. The bacterial culture (1 mL) was harvested via centrifugation (2 min, 20 376 x g, 37°C) and washed three times with PBS. The pellets from 1-mL samples of the expression cell culture were resuspended in 100 μL of PBS. The hydrolysis of urea that is catalyzed by whole bacterial cells was performed in 96-well plates (Rotilabo, U-profile). The reaction progress curves were obtained by the addition of bacterial cells (1×10^9 CFU/mL final concentration) into mixtures (300 μL final volume) that contained 5 mM urea and various inhibitor concentrations that depended on their inhibitory strength. Alternatively, the reaction was initiated via the addition of a concentrated solution of urea after a 120-min preincubation of bacterial cells with the inhibitor. Samples (50 μL) of the reaction mixture were removed after the appropriate reaction time. The enzymatic reactions in the samples were terminated via the introduction of 100 μL of phenol-sodium nitroprusside solution, immediately followed by the addition of 100 μL of NaOH-hypochlorite solution. The absorption of indophenol blue was measured at 650 nm using a TECAN-Sunrise absorbance reader equipped with a gradient filter and Magellan software. The IC50 values were determined from the linear regression of the urease activity versus the logarithm of the inhibitor concentration. The reaction was studied in the absence and in the presence of the inhibitor. The influence of dimethylformamide (DMF), which was used as a solvent for several compounds, was also determined.

Setting [4] is: cells grown with urea, 2 h of preincubation with inhibitors in PBS under microaerobic conditions, read-out: IC502h PBS.
Where [5] appears, read: cells grown with urea, 2 h of preincubation with inhibitors in growth medium under microaerobic conditions, read-out: IC502h medium.
Where [6] appears, read: cells grown with urea, without preincubation, read-out: IC500.
The mark [7] stands for this setting: cells grown without urea, 2 h of preincubation with inhibitors in PBS under microaerobic conditions, read-out: IC502h PBS.
The mark [8] stands for this setting: cells grown without urea, without preincubation, read-out: IC500.
The mark [9] stands for this setting: read-out: IC500, without preincubation of cells with inhibitory compounds, 30-min reactions, 5 mM urea.
Setting [10] is: read-out: IC502h PBS, 2 h of preincubation with inhibitors in PBS.
[11] abbreviates: without preincubation of cells with inhibitory compounds, 30-min reactions, 5 mM urea.

Structures are written as SMILES. Like-named read-outs stand apart in the source and are kept apart here.

T1 sequence (B5Z674 whole entry, looked up): as above
T2 sequence (Q9ZMZ4 whole entry): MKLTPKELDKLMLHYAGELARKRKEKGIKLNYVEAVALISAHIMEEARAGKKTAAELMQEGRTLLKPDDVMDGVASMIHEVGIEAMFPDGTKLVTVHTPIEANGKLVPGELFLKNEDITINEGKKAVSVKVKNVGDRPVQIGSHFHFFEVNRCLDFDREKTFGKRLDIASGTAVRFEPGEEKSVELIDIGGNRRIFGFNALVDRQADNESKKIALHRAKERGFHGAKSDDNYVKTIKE
T2 sequence (P69997 whole entry): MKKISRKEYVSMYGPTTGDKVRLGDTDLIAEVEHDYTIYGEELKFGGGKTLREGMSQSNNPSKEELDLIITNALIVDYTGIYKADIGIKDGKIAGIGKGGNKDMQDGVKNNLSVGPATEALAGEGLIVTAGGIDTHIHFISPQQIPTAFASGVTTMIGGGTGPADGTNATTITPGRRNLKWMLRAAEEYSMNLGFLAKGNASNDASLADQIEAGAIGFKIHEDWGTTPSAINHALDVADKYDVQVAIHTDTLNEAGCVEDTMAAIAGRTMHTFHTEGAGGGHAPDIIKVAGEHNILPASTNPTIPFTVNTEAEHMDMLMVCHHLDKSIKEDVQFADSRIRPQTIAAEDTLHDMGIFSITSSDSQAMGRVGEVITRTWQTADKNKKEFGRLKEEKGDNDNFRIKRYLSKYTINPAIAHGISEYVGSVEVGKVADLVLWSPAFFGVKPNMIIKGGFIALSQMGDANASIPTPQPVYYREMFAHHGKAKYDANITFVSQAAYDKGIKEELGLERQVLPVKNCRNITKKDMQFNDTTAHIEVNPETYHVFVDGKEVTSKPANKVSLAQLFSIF

What is called Ki is the equilibrium dissociation constant of an inhibitor or competing ligand from its target. For the compound `CCCCCCCNCP(=O)(O)CN` [Compound 14], the Ki in test [1] (Ki) is 878 ± 25 µM. In addition, the IC50 in test [2] (setting [4]) is 672 ± 52 µM; in test [2] (setting [5]), 474 ± 34 µM; in test [2] (setting [6]), 942 ± 79 µM; in test [2] (setting [7]), 675 ± 33 µM; in test [2] (setting [8]) it was 743 ± 74 µM; in test [3] (setting [9]), above 2000 µM. For the same compound, the IC50 in test [3] (setting [10]) was above 2000 µM. The IC500 entry in test [3] (setting [11]) is recorded as “complete lack of inhibitory effects”.
Regarding `CCN(CC)CP(=O)(O)CN` [Compound 20], the IC50 in test [2] (setting [4]), in test [2] (setting [5]), in test [2] (setting [6]), in test [2] (setting [7]), in test [2] (setting [8]) and in test [3] (setting [9]) was above 2000 µM throughout. In test [3] (setting [10]), the IC50 was above 2000 µM.
Turning to `NCP(=O)(O)CN1CCCCC1` [Compound 16], the IC50 in test [2] (setting [4]), in test [2] (setting [5]), in test [2] (setting [6]), in test [2] (setting [7]), in test [2] (setting [8]) and in test [3] (setting [9]) was above 2000 µM each time. The IC50 in test [3] (setting [10]) was above 2000 µM.
For the compound `CCCCCCNCP(=O)(O)CO` [Compound 5], the Ki in test [1] (Ki) was 74.3 ± 4.7 µM.
Take `NCP(=O)(O)CNC1CCCCC1` [Compound 17]: the IC50 in test [2] (setting [4]), in test [2] (setting [5]), in test [2] (setting [6]), in test [2] (setting [7]), in test [2] (setting [8]) and in test [3] (setting [9]) was above 2000 µM throughout. Moreover, the IC50 in test [3] (setting [10]) is above 2000 µM.
Consider `CC(=O)NO` [Compound 24, acetohydroxamic acid, reference compound], for which the Ki was 23 µM in test [1] (listed as acetohydroxamic acid, read-out: Ki) and 23.2 ± 1.5 µM in test [1] (read-out: Ki). Further, the IC50 was 1360 ± 194 µM in test [2] (setting [4]); 192 ± 26 µM in test [2] (setting [5]); 1670 ± 70 µM in test [2] (setting [6]); 156 ± 32 µM in test [2] (setting [7]); above 2000 µM in test [2] (setting [8]); 1350 µM in test [2] (urea-grown cells, preincubation in PBS, read-out: IC502h PBS). Further, the IC50 in test [2] (urea-grown cells, without former preincubation, read-out: IC500) is 1660 µM; in test [3] (2 h of preincubation with inhibitors in PBS, read-out: IC502h PBS), 96 ± 17 µM; in test [3] (without preincubation of cells with inhibitory compounds, 30-min reactions, 5 mM urea, read-out: IC500), 153 ± 31 µM.
With `CN(Cc1ccccc1)CP(=O)(O)CN` [Compound 19], the Ki in test [1] (Ki) worked out at 36.4 ± 4.9 µM. The IC50 in test [2] (setting [4]), in test [2] (setting [5]), in test [2] (setting [6]), in test [2] (setting [7]) and in test [2] (setting [8]) was above 2000 µM throughout. Also, the IC500 entry in test [3] (setting [11]) is “complete lack of inhibitory effects”.
Regarding `CC(C)CNCP(=O)(O)CN` [Compound 10], in test [1] (Ki), the Ki is 440 ± 70 µM. The IC50 in test [2] (setting [4]) is 1130 ± 83 µM; in test [2] (setting [5]), 835 ± 34 µM; in test [2] (setting [6]) it was above 2000 µM; in test [2] (setting [7]), 980 ± 35 µM; in test [2] (setting [8]), 913 ± 63 µM; in test [3] (IC502h PBS, 2 h of preincubation with inhibitors in PBS) it was 1870 ± 113 µM. In test [3] (setting [9]), the IC50 is above 2000 µM.
For the compound `NCP(=O)(O)CNCc1ccccc1` [Compound 18], in test [1] (Ki), the Ki worked out at 44.4 ± 2.5 µM. The IC50 in test [2] (setting [4]), in test [2] (setting [5]), in test [2] (setting [6]), in test [2] (setting [7]), in test [2] (setting [8]) and in test [3] (setting [9]) was above 2000 µM in each case. Moreover, in test [3] (setting [10]), the IC50 is above 2000 µM. The IC500 result in test [3] (setting [11]) was “complete lack of inhibitory effects”.
With `O=P(O)(CNCc1ccccc1)CNCc1ccccc1` [Compound 23], the Ki in test [1] (Ki) was 50.7 ± 4.8 µM. The IC50 in test [2] (setting [4]), in test [2] (setting [5]), in test [2] (setting [6]), in test [2] (setting [7]) and in test [2] (setting [8]) was above 2000 µM each time. In test [3] (setting [11]), the IC500 result was “complete lack of inhibitory effects”.
As to `CN(C)CP(=O)(O)CN(C)C` [Compound 22], the IC50 in test [2] (setting [4]), in test [2] (setting [5]), in test [2] (setting [6]), in test [2] (setting [7]), in test [2] (setting [8]) and in test [3] (setting [9]) was above 2000 µM in each case. In test [3] (setting [10]), the IC50 is above 2000 µM.
Consider `CN(C)CP(=O)(O)CN` [Compound 8], for which, in test [1] (Ki), the Ki came to 29.9 ± 2 µM.

(Values after paper PMC5550016, “Aminophosphinates against Helicobacter pylori ureolysis—Biochemical and whole-cell inhibition characteristics” (PLoS ONE, 2017).)
